This is an account of results in patent US10596150B2, “Antifungal agents” (F2G LIMITED, priority 2014, dated 2020).

In one experiment the test system is A. flavus. Briefly: Minimum Inhibitory Concentration (MIC), RPMI medium. The note with it: Aspergillus flavus, >80% growth inhibition. Type of experiment: cell-based. The method, boiled down: (§1)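 Fungal spores at 1-2×10^4 cfu/mL are exposed to doubling drug dilutions (50-0.05 mg/L) in RPMI with 0.135 M MOPS, then incubated 24-48 h at 35° C. Optical density defines the MIC as >80% growth inhibition.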

Another experiment concerns Scedos apiospermum 1124. The experiment is described as above. In kind it is cell-based. The settings on record: Scedosporium apiospermum. The method, boiled down: as §1
Another experiment concerns A. terreus. The description is as above. Type of experiment: cell-based. The note with it: Aspergillus terreus, >80% growth inhibition. The method, boiled down:
as §1

The subject of experiment [1] is Scedosporium apiospermum 15848. The experiment is described as above. Type of experiment: cell-based. The method, boiled down:
as §1

The test system of experiment [2] is Scedosporium prolifican 451. Described as above. Type of experiment: cell-based. The method, boiled down:
as §1

The subject of a further experiment is A. niger. The experiment is described as above. The note with it: Aspergillus niger, >80% growth inhibition. Type of experiment: cell-based. The method, boiled down:
as §1

Experiment [3] deals with Scedosporium prolifican 8353. The description is as above. In kind it is cell-based. The method, boiled down:
as §1

The subject of a further experiment is A. fumigatus 210. Described as above. The note with it: Aspergillus fumigatus, >80% growth inhibition. In kind it is cell-based. The method, boiled down: as §1
Experiment [4] has as its system Scedosporium prolifican 1121. The description is as above. In kind it is cell-based. The method, boiled down:
as §1

For experiment [5], the system named is Scedosporium apiospermum 8353. The experiment is described as above. Type of experiment: cell-based. The method, boiled down:
as §1

A further experiment has as its system L. prolificans FMR 3569. Briefly: Lomentospora prolificans FMR 3569 disseminated infection model (survival, tissue burden). In kind it is in vivo, Male OF-1 mice. The settings on record: VRC 25 mg/kg p.o. QD; Example 1 20 mg/k p.o. BID; from day 1 after challenge for 9 days.
Another experiment has as its system S. dehoogii. Briefly: Analogous MIC experiments. Type of experiment: cell-based. The procedure:
(§2) Between 1 and 5 mgs of the compound were accurately weighed out into a sterile Eppendorf tube. The compound was dissolved in DMSO to give a solution containing 5 mg/mL. Tubes were stored at −20° C. until required.
(§3) On the day of testing thawed solutions were vortex mixed to ensure homogeneity. 30 μL of solution was removed and added to 570 μL of sterile water in a separate sterile Eppendorf. The thoroughly mixed solution was used to prepare a series of doubling dilutions in water, in a deep well plate. Thirteen replicate plates were prepared using a Minitrak by aspirating 20 μL from each well into eleven clear polystyrene 96 well plates.
(§4) Spores of Aspergillus and Scedosporium were harvested from cultures grown on Sabarauds agar for 5 days, and resuspended in PBS/Tween 80 to approx 1×10^7 cfu/mL. Each organism suspension was diluted in RPMI medium, containing 2% glucose and 0.135 M MOPS buffer (pH 7.0) to 0.5-2×10^4 cfu/mL. 80 μL of an organism suspension was added to each well of the plate containing drug dilutions.
(§5) This produced MIC plates with a drug range 50-0.05 mg/L and organism inocula of 1-2×10^4 cfu/mL. All plates were incubated for 24-48 h at 35° C. Growth was assessed by monitoring the optical density at 485 nm for each well. The MIC of a compound is the lowest drug concentration that inhibits growth of an organism by >80% compared with a drug free control.

A further experiment has as its system S. aurantiacum. As to the kind of experiment: Analogous MIC experiments. In kind it is cell-based. As for the experimental part:
as §2, §3, §4, §5

The subject of the next experiment is S. boydii. Briefly: Analogous MIC experiments. In kind it is cell-based. The procedure: as §2, §3, §4, §5

Each structure is given as a SMILES string. ≈ marks a conversion by molar mass, not a printed value. Bounds are passed on as bounds.

Procedure for L. prolificans FMR 3569: L. prolificans (also known as Scedosporium prolificans or S. prolificans) was grown on Potato Dextrose Agar (PDA) for 5 days at 35° C. On the day of infection, cultures were flooded with sterile saline and filtered through sterile gauze to remove clumps of conidia and hyphae. The resulting suspensions were adjusted by haemocytometer count and by serial plating to confirm viability.
Male OF-1 mice with a mean weight of 30 g were used in the experiment. Mice were housed in standard boxes with food and water ad libitum.
Mice were rendered neutropenic two days prior to infection by an intraperitoneal (i.p.) injection of 200 mg/kg of cyclophosphamide, and once every 5 days thereafter (Clemons et al, 2005).
Mice were challenged with 5×10^4 CFU/animal of L. prolificans FMR 3569, in a volume of 0.2 ml of sterile saline into the lateral tail vein.
Treatments consisted of (a) voriconazole (VRC) (Vfend; Pfizer S. A., Madrid, Spain) at 25 mg/kg p.o, by gavage QD; (b) Example 1 at 20 mg/k, p.o, by gavage BID; and (c) no treatment. From 3 days before infection, mice that received VRC were given grapefruit juice instead of water (Sugar & Liu, 2001). All treatments began 1 day after challenge, and the therapy lasted for 9 days. Controls received no treatment.
For survival studies groups of 10 mice were randomly established for each therapy. Mortality was recorded daily until the end of the experiment. […]

Turning to `Cc1cc(-c2ccccc2)c(C(=O)C(=O)Nc2ccc(N3CCN(c4ncc(F)cn4)CC3)cc2)n1C` [Example 1, 2-(1,5-dimethyl-3-phenyl-1H-pyrrol-2-yl)-N-(4-(4-(5-fluoropyrimidin-2-yl)piperazin-1-yl)phenyl)-2-oxoacetamide], the MIC (as a rule, the smallest concentration in the dilution series that meets the test's criterion for growth inhibition) in the experiment with A. flavus was 0.005 to 0.01 µg/mL (≈ 0.01 to 0.0201 µM); in the experiment with Scedos apiospermum 1124 it was no more than 0.005 µg/mL; against A. terreus, no more than 0.005 µg/mL; in [1], 0.02 to 0.04 µg/mL (≈ 0.0401 to 0.0802 µM); in experiment [2], 0.005 to 0.01 µg/mL (≈ 0.01 to 0.0201 µM); with A. niger, 0.01 to 0.02 µg/mL (≈ 0.0201 to 0.0401 µM). Also, the minimum inhibitory concentration (MIC) in experiment [3] is 0.005 to 0.01 µg/mL (≈ 0.01 to 0.0201 µM); in the experiment with A. fumigatus 210, 0.01 to 0.02 µg/mL (≈ 0.0201 to 0.0401 µM); in [4], no more than 0.005 µg/mL; in experiment [5], 0.005 to 0.01 µg/mL (≈ 0.01 to 0.0201 µM). In the experiment on L. prolificans FMR 3569, the “survival rates compared with the control (FIG. 7)” value is recorded as “improved survival rates”. For the same molecule, in the experiment on S. dehoogii, the “antifungal activity against S. dehoogii” value is reported as “good antifungal activity”. Also, the “antifungal activity against S. aurantiacum” value in the experiment with S. aurantiacum is given as “good antifungal activity”. Also, the “antifungal activity against S. boydii” value in the experiment with S. boydii was “good antifungal activity”.
